GI50 data for 16 molecules are collected here from patent US20240228458A1, “PYRIMIDINE DERIVATIVE HAVING PROTEIN KINASE INHIBITORY ACTIVITY, AND THERAPEUTIC PHARMACEUTICAL COMPOSITION COMPRISING SAME” (THERAPEX CO., LTD., priority 2021, published 2024).

What all share (format): cell-based
Assay [1] deals with Ba/F3 cells expressing L858R/T790M/C797S (EGFR-LTC). The experiment in a line: Growth inhibition (GI50) of Ba/F3 cells expressing L858R/T790M/C797S (EGFR-LTC), Celltiter glo. Conditions: Mus musculus, BaF3, 72 h. In outline: (§1)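 Ba/F3 cells carrying the given EGFR variant were seeded at 100,000 cells/ml and, 4 h later, treated with 10-point, 4-fold serial dilutions prepared from a 2 mM stock (0.5% DMSO final). After 72 h at 37 °C and 5% CO2, viable cells were quantified by CellTiter-Glo luminescence to derive GI50.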

For another assay, the system named is parental Ba/F3 cell line. The experiment in a line: Growth inhibition (GI50) of the parental Ba/F3 cell line (not introduced with EGFR variants), Celltiter glo. To be noted: Mus musculus, BaF3, 72 h, parental Ba/F3 cells. In a few lines:
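Parental Ba/F3 cells (100,000 cells/ml) were treated with 10-point, 4-fold compound dilutions (0.5% DMSO; top stock 2 mM) for 72 h at 37 °C, 5% CO2. Viability was read by CellTiter-Glo; GI50 is the concentration (μM) giving 50% growth inhibition.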

In assay [2] the test system is Ba/F3 cells expressing EGFR-wt. Kind of assay: Growth inhibition (GI50) of Ba/F3 cells expressing EGFR-wt, Celltiter glo. To be noted: Mus musculus, BaF3, 72 h. In outline:
as §1

For assay [3], the system named is Ba/F3 cells expressing L858R/T790M (EGFR-LT). Kind of assay: Growth inhibition (GI50) of Ba/F3 cells expressing L858R/T790M (EGFR-LT), Celltiter glo. Conditions: Mus musculus, BaF3, 72 h. In a few lines:
as §1

Assay [4] deals with Ba/F3 cells expressing del19/T790M (EGFR-DT). Kind of assay: Growth inhibition (GI50) of Ba/F3 cells expressing del19/T790M (EGFR-DT), Celltiter glo. To be noted: Mus musculus, BaF3, 72 h. In a few lines: as §1
The subject of assay [5] is Ba/F3 cells expressing del19/T790M/C797S (EGFR-DTC). The experiment in a line: Growth inhibition (GI50) of Ba/F3 cells expressing del19/T790M/C797S (EGFR-DTC), Celltiter glo. To be noted: Mus musculus, BaF3, 72 h. In a few lines:
as §1

Molecules are shown by their SMILES.

For the molecule `COc1cc(N2CCC(Nc3ccnn3C)CC2)c(C)cc1Nc1ncc(Cl)c(Nc2cc3c(cc2NS(C)(=O)=O)CCO3)n1` [Example 224, N-(6-((5-chloro-2-((2-methoxy-5-methyl-4-(4-((1-methyl-1H-pyrazol-5-yl)amino)piperidin-1-yl)phenyl)amino)pyrimidin-4-yl)amino)-2,3-dihydrobenzofuran-5-yl)methanesulfonamide], the GI50 in assay [1] lay within 25 to 100 nM; in the assay with parental Ba/F3 cell line it was 100 to 500 nM; in assay [2] it was 500 to 2000 nM; in assay [3] it was 25 to 100 nM; in assay [4], 100 to 500 nM; in assay [5], 25 to 100 nM.
`COc1cc(N2CCC(N3CCCC(N(C)C)C3)CC2)c(Cl)cc1Nc1ncc(Br)c(Nc2ccc(F)cc2NS(C)(=O)=O)n1` (stereo not drawn) [Example 149, N-(2-((5-bromo-2-((5-chloro-4-(3-(dimethylamino)-[1,4′-bipiperidin]-1′-yl)-2-methoxyphenyl)amino)pyrimidin-4-yl)amino)-5-fluorophenyl)methanesulfonamide]: the GI50 in assay [1] lay within 25 to 100 nM; in the assay with parental Ba/F3 cell line it was 100 to 500 nM; in assay [2] it was 100 to 500 nM; in assay [3], 100 to 500 nM; in assay [4], 100 to 500 nM; in assay [5], 100 to 500 nM.
Take `COc1cc(N2CCC(N3CCC(N(C)C)C3)CC2)c(Br)cc1Nc1ncc(Cl)c(Nc2cc3c(cc2NS(C)(=O)=O)CCO3)n1` (stereo not drawn) [Example 283, N-(6-((2-((5-bromo-4-(4-(3-(dimethylamino)pyrrolidin-1-yl)piperidin-1-yl)-2-methoxyphenyl)amino)-5-chloropyrimidin-4-yl)amino)-2,3-dihydrobenzofuran-5-yl)methanesulfonamide]: the 50% growth inhibitory concentration (GI50) in assay [1] is 25 to 100 nM; in the assay with parental Ba/F3 cell line it was 2000 to 10000 nM; in assay [2], 100 to 500 nM; in assay [3], 1 to 25 nM; in assay [4], 1 to 25 nM; in assay [5], 100 to 500 nM.
As for `Cc1cc(Nc2ncc(Br)c(Nc3cc(Cl)c(F)cc3NS(C)(=O)=O)n2)c(Cl)cc1N1CCC(N2CCN(C)CC2)CC1` [Example 177, N-(2-((5-bromo-2-((2-chloro-5-methyl-4-(4-(4-methylpiperazin-1-yl)piperidin-1-yl)phenyl)amino)pyrimidin-4-yl)amino)-4-chloro-5-fluorophenyl)methanesulfonamide], the GI50 in assay [1] lay within 1 to 25 nM; with parental Ba/F3 cell line, 2000 to 10000 nM; in assay [2], 2000 to 10000 nM; in assay [3], 100 to 500 nM; in assay [4], 100 to 500 nM; in assay [5] it was 25 to 100 nM.
With `COc1cc(N2CCC(N3CCN(C)CC3)CC2)c(C)cc1Nc1ncc(Cl)c(Nc2ccc3nccnc3c2NS(C)(=O)=O)n1` [Example 131, N-(6-((5-chloro-2-((2-methoxy-5-methyl-4-(4-(4-methylpiperazin-1-yl)piperidin-1-yl)phenyl)amino)pyrimidin-4-yl)amino)quinoxalin-5-yl)methanesulfonamide], the concentration for 50% growth inhibition (GI50) in assay [1] was in the range of 1 to 25 nM; with parental Ba/F3 cell line, 500 to 2000 nM; in assay [2] it was 100 to 500 nM; in assay [3] it was 25 to 100 nM; in assay [4], 1 to 25 nM; in assay [5] it was 25 to 100 nM.
As to `Cc1cc(Nc2ncc(Cl)c(Nc3cc(Cl)ccc3P(C)(C)=O)n2)c(Cl)cc1N1CCC(N2CCN(C)CC2)CC1` [Example 154, (4-chloro-2-((5-chloro-2-((2-chloro-5-methyl-4-(4-(4-methylpiperazin-1-yl)piperidin-1-yl)phenyl)amino)pyrimidin-4-yl)amino)phenyl)dimethylphosphine oxide], the 50% growth inhibitory concentration (GI50) is 500 to 2000 nM in assay [1]; 2000 to 10000 nM with parental Ba/F3 cell line; 2000 to 10000 nM in assay [2]; 2000 to 10000 nM in assay [3]; 500 to 2000 nM in assay [4]; 100 to 500 nM in assay [5].
In the case of `CN1CCN(C2CCN(c3cc(Cl)c(Nc4ncc(Br)c(Nc5cc6c(cc5NS(C)(=O)=O)CCO6)n4)cc3Cl)CC2)CC1` [Example 217, N-(6-((5-bromo-2-((2,5-dichloro-4-(4-(4-methylpiperazin-1-yl)piperidin-1-yl)phenyl)amino)pyrimidin-4-yl)amino)-2,3-dihydrobenzofuran-5-yl)methanesulfonamide], the 50% growth inhibitory concentration (GI50) in assay [1] lay in the range of 1 to 25 nM; in the assay on parental Ba/F3 cell line, 500 to 2000 nM; in assay [2] it was 100 to 500 nM; in assay [3], 1 to 25 nM; in assay [4], 1 to 25 nM; in assay [5], 1 to 25 nM.
As to `Cc1cc(Nc2ncc(Cl)c(Nc3cc(Cl)ccc3NS(C)(=O)=O)n2)c(Cl)cc1N1CCC(N2CCCN(C)CC2)CC1` [Example 162, N-(4-chloro-2-((5-chloro-2-((2-chloro-5-methyl-4-(4-(4-methyl-1,4-diazepan-1-yl)piperidin-1-yl)phenyl)amino)pyrimidin-4-yl)amino)phenyl)methanesulfonamide], the GI50 lay in the range of 2000 to 10000 nM in assay [1]; 2000 to 10000 nM with parental Ba/F3 cell line; 500 to 2000 nM in assay [2]; 2000 to 10000 nM in assay [3]; 2000 to 10000 nM in assay [4]; 100 to 500 nM in assay [5].
`COc1cc(N2CCC(N3CCNCC3)CC2)c(C)cc1Nc1ncc(Br)c(Nc2cc(Cl)ccc2NS(C)(=O)=O)n1` [Example 94, N-(2-((5-bromo-2-((2-methoxy-5-methyl-4-(4-(piperazin-1-yl)piperidin-1-yl)phenyl)amino)pyrimidin-4-yl)amino)-4-chlorophenyl)methanesulfonamide]: the GI50 in assay [1] lay within 1 to 25 nM; in the assay with parental Ba/F3 cell line it was 500 to 2000 nM; in assay [2], 25 to 100 nM; in assay [3], 1 to 25 nM; in assay [4] it was 1 to 25 nM; in assay [5] it was 1 to 25 nM.
With `COc1cc(N2CCC(N3CCCN(C)CC3)CC2)c(C)cc1Nc1ncc(Cl)c(Nc2ccc3c(c2)N(C)CC3)n1` [Example 275], the concentration for 50% growth inhibition (GI50) in assay [1] lay in the range of 500 to 2000 nM; in the assay with parental Ba/F3 cell line, 500 to 2000 nM; in assay [2], 100 to 500 nM; in assay [3] it was 500 to 2000 nM; in assay [4] it was 100 to 500 nM; in assay [5], 500 to 2000 nM.
Take `Cc1cc(Nc2ncc(Cl)c(Nc3ccc4c(c3)N(C)CC4)n2)c(Cl)cc1N1CCC(N2CCN(C)CC2)CC1` [Example 274]: the GI50 in assay [1] lay in the range of 500 to 2000 nM; in the assay on parental Ba/F3 cell line it was 500 to 2000 nM; in assay [2], 25 to 100 nM; in assay [3], 500 to 2000 nM; in assay [4] it was 500 to 2000 nM; in assay [5], 2000 to 10000 nM.
Take `COc1cc(N2CCC(N3CCCN(C)CC3)CC2)c(Cl)cc1Nc1ncc(Cl)c(Nc2cc(Cl)ccc2NS(C)(=O)=O)n1` [Example 163, N-(4-chloro-2-((5-chloro-2-((5-chloro-2-methoxy-4-(4-(4-methyl-1,4-diazepan-1-yl)piperidin-1-yl)phenyl)amino)pyrimidin-4-yl)amino)phenyl)methanesulfonamide]: the concentration for 50% growth inhibition (GI50) is 2000 to 10000 nM in assay [1]; above 10000 nM in the assay with parental Ba/F3 cell line; 2000 to 10000 nM in assay [2]; 2000 to 10000 nM in assay [3]; 2000 to 10000 nM in assay [4]; 100 to 500 nM in assay [5].
For the molecule `CCc1cc(Nc2ncc(Br)c(Nc3cc(Cl)ccc3NS(C)(=O)=O)n2)c(OC)cc1N1CCC(N2CCN(C)CC2)CC1` [Example 191, N-(2-((5-bromo-2-((5-ethyl-2-methoxy-4-(4-(4-methylpiperazin-1-yl)piperidin-1-yl)phenyl)amino)pyrimidin-4-yl)amino)-4-chlorophenyl)methanesulfonamide], the GI50 in assay [1] was in the range of 1 to 25 nM; in the assay on parental Ba/F3 cell line, 2000 to 10000 nM; in assay [2] it was 100 to 500 nM; in assay [3], 1 to 25 nM; in assay [4], 1 to 25 nM; in assay [5] it was 1 to 25 nM.
Regarding `COc1cc(N2CCC(N3CCC(C(F)(F)F)CC3)CC2)c(C)cc1Nc1ncc(Br)c(Nc2cc3c(cc2NS(C)(=O)=O)CCO3)n1` [Example 245, N-(6-((5-bromo-2-((2-methoxy-5-methyl-4-(4-(trifluoromethyl)-[1,4′-bipiperidin]-1′-yl)phenyl)amino)pyrimidin-4-yl)amino)-2,3-dihydrobenzofuran-5-yl)methanesulfonamide], the concentration for 50% growth inhibition (GI50) in assay [1] lay in the range of 1 to 25 nM; with parental Ba/F3 cell line it was 2000 to 10000 nM; in assay [2], 2000 to 10000 nM; in assay [3], 1 to 25 nM; in assay [4] it was 100 to 500 nM; in assay [5], 25 to 100 nM.
As to `Cc1cc(Nc2ncc(Br)c(Nc3ccc4nccnc4c3P(C)(C)=O)n2)c(Cl)cc1N1CCC(N2CCN(C)CC2)CC1` [Example 193, (6-((5-bromo-2-((2-chloro-5-methyl-4-(4-(4-methylpiperazin-1-yl)piperidin-1-yl)phenyl)amino)pyrimidin-4-yl)amino)quinoxalin-5-yl)dimethylphosphine oxide], the GI50 in assay [1] fell in the range of 25 to 100 nM; in the assay with parental Ba/F3 cell line it was 500 to 2000 nM; in assay [2], 100 to 500 nM; in assay [3], 100 to 500 nM; in assay [4], 100 to 500 nM; in assay [5], 1 to 25 nM.
For `CCc1cc(Nc2ncc(Cl)c(Nc3cc4c(cc3NS(C)(=O)=O)CCO4)n2)c(OC)cc1N1CCC(N2CCN(C)CC2)CC1` [Example 206, N-(6-((5-chloro-2-((5-ethyl-2-methoxy-4-(4-(4-methylpiperazin-1-yl)piperidin-1-yl)phenyl)amino)pyrimidin-4-yl)amino)-2,3-dihydrobenzofuran-5-yl)methanesulfonamide], the GI50 lay in the range of 25 to 100 nM in assay [1]; 2000 to 10000 nM in the assay on parental Ba/F3 cell line; 100 to 500 nM in assay [2]; 1 to 25 nM in assay [3]; 1 to 25 nM in assay [4]; 1 to 25 nM in assay [5].
